Laboratory results as given in patent US20090311217A1, “3-SUBSTITUTED-1H-INDOLE COMPOUNDS, THEIR USE AS MTOR KINASE AND PI3 KINASE INHIBITORS, AND THEIR SYNTHESES” (priority 2008, published 2009).
Read-outs that look alike come from different tables or passages of the source.

Experiments:
[1] = molecular target: PI3K-alpha (Homo sapiens, UniProt P42336); test: PI3K-alpha fluorescence polarization assay; format: biochemical
[2] = molecular target: T1, human TOR (Homo sapiens, UniProt P42345); test: mTOR enzyme assay (DELFIA, His6-S6K substrate); format: biochemical; conditions: read-out: mTOR Kinase Avg. IC50
T1 construct: FLAG

PI3K-alpha, sequence (P42336 whole entry, species assumed): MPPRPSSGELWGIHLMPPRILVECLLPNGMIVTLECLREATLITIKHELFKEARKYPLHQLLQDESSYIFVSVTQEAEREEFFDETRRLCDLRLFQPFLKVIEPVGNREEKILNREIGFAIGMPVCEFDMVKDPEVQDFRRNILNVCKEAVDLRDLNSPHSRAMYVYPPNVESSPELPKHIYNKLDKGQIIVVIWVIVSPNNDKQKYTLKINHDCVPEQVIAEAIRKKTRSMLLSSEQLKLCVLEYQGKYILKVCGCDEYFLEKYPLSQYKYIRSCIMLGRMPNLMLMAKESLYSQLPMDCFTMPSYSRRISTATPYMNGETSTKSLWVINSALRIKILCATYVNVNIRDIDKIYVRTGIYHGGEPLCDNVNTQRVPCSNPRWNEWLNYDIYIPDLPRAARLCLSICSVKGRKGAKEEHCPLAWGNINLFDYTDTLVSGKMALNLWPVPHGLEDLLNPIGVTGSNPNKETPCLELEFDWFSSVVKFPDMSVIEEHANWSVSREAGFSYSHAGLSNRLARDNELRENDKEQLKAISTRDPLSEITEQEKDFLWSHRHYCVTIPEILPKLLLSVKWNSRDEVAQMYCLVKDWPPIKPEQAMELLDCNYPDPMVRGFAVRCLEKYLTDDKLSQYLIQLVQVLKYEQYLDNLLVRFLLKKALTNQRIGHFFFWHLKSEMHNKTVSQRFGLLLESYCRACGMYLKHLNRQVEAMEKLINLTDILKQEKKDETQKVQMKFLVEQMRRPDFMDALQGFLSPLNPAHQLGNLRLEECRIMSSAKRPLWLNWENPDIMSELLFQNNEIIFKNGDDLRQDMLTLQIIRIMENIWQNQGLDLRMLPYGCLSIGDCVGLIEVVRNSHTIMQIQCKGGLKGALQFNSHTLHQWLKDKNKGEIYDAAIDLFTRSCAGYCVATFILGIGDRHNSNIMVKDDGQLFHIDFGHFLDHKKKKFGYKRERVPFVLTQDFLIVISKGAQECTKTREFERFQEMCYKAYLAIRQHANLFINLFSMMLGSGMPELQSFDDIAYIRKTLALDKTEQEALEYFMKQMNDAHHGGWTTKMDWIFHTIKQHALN
PI3K-alpha, sequence (P27986 whole entry partner, species assumed): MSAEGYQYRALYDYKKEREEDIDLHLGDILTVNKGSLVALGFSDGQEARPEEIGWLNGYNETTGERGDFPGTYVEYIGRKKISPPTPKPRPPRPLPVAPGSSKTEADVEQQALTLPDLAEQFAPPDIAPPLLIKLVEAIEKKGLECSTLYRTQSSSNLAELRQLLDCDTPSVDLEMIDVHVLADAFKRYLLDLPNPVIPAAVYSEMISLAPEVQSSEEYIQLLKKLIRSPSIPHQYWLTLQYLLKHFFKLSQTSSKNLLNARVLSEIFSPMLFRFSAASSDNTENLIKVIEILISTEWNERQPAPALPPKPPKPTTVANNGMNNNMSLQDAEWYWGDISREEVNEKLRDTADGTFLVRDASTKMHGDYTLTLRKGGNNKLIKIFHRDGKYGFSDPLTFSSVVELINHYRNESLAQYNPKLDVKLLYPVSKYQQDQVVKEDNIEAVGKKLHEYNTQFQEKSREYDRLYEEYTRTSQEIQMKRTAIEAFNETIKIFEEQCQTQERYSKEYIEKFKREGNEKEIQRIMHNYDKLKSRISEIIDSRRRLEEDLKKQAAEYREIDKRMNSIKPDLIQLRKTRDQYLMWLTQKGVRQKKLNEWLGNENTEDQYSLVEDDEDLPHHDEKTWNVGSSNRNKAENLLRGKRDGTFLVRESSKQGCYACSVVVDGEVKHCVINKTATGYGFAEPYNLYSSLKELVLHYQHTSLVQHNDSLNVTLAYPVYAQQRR

## Cn1c(-c2ccccc2)c(C=C2Oc3cc(O)cc(O)c3C2=O)c2ccccc21 [Example 15, 4,6-dihydroxy-2-[(1-methyl-2-phenyl-1H-indol-3-yl)methylene]-1-benzofuran-3(2H)-one]
[1]; PI3Kα Avg. IC50
  IC50: 2660 nM
[2]
  IC50: 90 nM

## COc1ccc2c(c1)c(/C=C1\Oc3c(ccc(O)c3C)C1=O)c(C)n2CCCN(C)C [Example 450, (2Z)-2-({1-[3-(Dimethylamino)propyl]-5-methoxy-2-methyl-1H-indol-3-yl}methylene)-6-hydroxy-7-methyl-1-benzofuran-3(2H)-one]
[1]; read-out: PI3Kα Avg. IC50
  IC50: 662 nM
[2]
  IC50: > 20000 nM

## O=C1C(=Cc2c[nH]c3ccccc23)Oc2cccc(O)c21 [Example 74, 4-hydroxy-2-(1H-indol-3-ylmethylene)-1-benzofuran-3(2H)-one]
[1]; read-out: PI3Kα Avg. IC50
  IC50: 12000 nM
[2]
  IC50: 9800 nM

## N#CCCCn1cc(C=C2Oc3cc(O)cc(O)c3C2=O)c2ccccc21 [Example 241, 4-{3-[(4,6-dihydroxy-3-oxo-1-benzofuran-2(3H)-ylidene)methyl]-1H-indol-1-yl}butanenitrile]
[1]; read-out: PI3Kα Avg. IC50
  IC50: 4710 nM
[2]
  IC50: > 20000 nM

## COc1cccc(-c2c(C=C3Oc4cc(O)cc(O)c4C3=O)c3ccccc3n2C)c1 [Example 196, 4,6-dihydroxy-2-{[2-(3-methoxyphenyl)-1-methyl-1H-indol-3-yl]methylene}-1-benzofuran-3(2H)-one]
[1]; read-out: PI3Kα Avg. IC50
  IC50: 1690 nM
[2]
  IC50: 390 nM

## O=C1C(=Cc2c[nH]c3cc([N+](=O)[O-])ccc23)Oc2cc(O)cc(O)c21 [Example 179, 4,6-dihydroxy-2-[(6-nitro-1H-indol-3-yl)methylene]-1-benzofuran-3(2H)-one]
[1]; read-out: PI3Kα Avg. IC50
  IC50: 2470 nM
[2]
  IC50: 16000 nM

## Cn1cc(C=C2Oc3cc(O)cc(O)c3C2=O)c2ccc(C(F)(F)F)cc21 [Example 237, 4,6-dihydroxy-2-{[1-methyl-6-(trifluoromethyl)-1H-indol-3-yl]methylene}-1-benzofuran-3(2H)-one]
[1]; read-out: PI3Kα Avg. IC50
  IC50: 2480 nM
[2]
  IC50: > 20000 nM

## CC(C)Oc1ccc(-c2c(C=C3Oc4cc(O)cc(O)c4C3=O)c3ccccc3n2C)cc1 [Example 261, 4,6-dihydroxy-2-{[2-(4-isopropoxyphenyl)-1-methyl-1H-indol-3-yl]methylene}-1-benzofuran-3(2H)-one]
[1]; read-out: PI3Kα Avg. IC50
  IC50: 1980 nM
[2]
  IC50: 680 nM

## O=C1C(=Cc2c[nH]c3cccc(OCc4ccccc4)c23)Oc2cc(O)cc(O)c21 [Example 243, 2-{[4-(benzyloxy)-1H-indol-3-yl]methylene}-4,6-dihydroxy-1-benzofuran-3(2H)-one]
[1]; read-out: PI3Kα Avg. IC50
  IC50: 1050 nM
[2]
  IC50: 480 nM

## O=C1C(=Cc2c(-c3ccccc3)n(CCN3CCNCC3)c3ccccc23)Oc2cc(O)cc(O)c21 [Example 160, 4,6-dihydroxy-2-{[2-phenyl-1-(2-piperazin-1-ylethyl)-1H-indol-3-yl]methylene}-1-benzofuran-3(2H)-one]
[1]; read-out: PI3Kα Avg. IC50
  IC50: 1010 nM
[2]
  IC50: 820 nM

## Cc1c(C=C2Oc3cc(O)cc(O)c3C2=O)c2ccccc2n1CCCl [Example 92, 2-{[1-(2-chloroethyl)-2-methyl-1H-indol-3-yl]methylene}-4,6-dihydroxy-1-benzofuran-3(2H)-one]
[1]; read-out: PI3Kα Avg. IC50
  IC50: 2040 nM
[2]
  IC50: 2600 nM

## O=C1C(=Cc2c[nH]c3ccc(Br)cc23)Oc2cccc(O)c21 [Example 77, 2-[(5-bromo-1H-indol-3-yl)methylene]-4-hydroxy-1-benzofuran-3(2H)-one]
[1]; read-out: PI3Kα Avg. IC50
  IC50: > 10000 nM
[2]
  IC50: 17500 nM

## O=C1C(=Cc2c(-c3ccc(Cl)cc3)[nH]c3ccccc23)Oc2cccc(O)c21 [Example 76, 2-{[2-(4-chlorophenyl)-1H-indol-3-yl]methylene}-4-hydroxy-1-benzofuran-3(2H)-one]
[1]; read-out: PI3Kα Avg. IC50
  IC50: > 10000 nM
[2]
  IC50: 10000 nM

## Cc1[nH]c2ccc(F)cc2c1C=C1Oc2cc(O)cc(O)c2C1=O [Example 218, 2-[(5-fluoro-2-methyl-1H-indol-3-yl)methylene]-4,6-dihydroxy-1-benzofuran-3(2H)-one]
[1]; read-out: PI3Kα Avg. IC50
  IC50: 796 nM
[2]
  IC50: 1650 nM

## O=C1/C(=C/c2c[nH]c3ccc(Cl)cc23)Oc2c1ccc(O)c2O [Example 63, (2Z)-2-[(5-chloro-1H-indol-3-yl)methylene]-6,7-dihydroxy-1-benzofuran-3(2H)-one]
[1]; read-out: PI3Kα Avg. IC50
  IC50: 431 nM
[2]
  IC50: > 20000 nM

## Cn1cc(C=C2Oc3cc(O)cc(O)c3C2=O)c2c(OCc3ccccc3)cccc21 [Example 256, 2-{[4-(benzyloxy)-1-methyl-1H-indol-3-yl]methylene}-4,6-dihydroxy-1-benzofuran-3(2H)-one]
[1]; read-out: PI3Kα Avg. IC50
  IC50: > 10000 nM
[2]
  IC50: 280 nM

## Cc1cccc2c(/C=C3\Oc4cc(O)cc(O)c4C3=O)c[nH]c12 [Example 49, (2Z)-4,6-dihydroxy-2-[(7-methyl-1H-indol-3-yl)methylene]-1-benzofuran-3(2H)-one]
[1]; read-out: PI3Kα Avg. IC50
  IC50: 2430 nM
[2]
  IC50: > 5000 nM

## CS(=O)(=O)c1ccc2c(C=C3Oc4cc(O)cc(O)c4C3=O)c[nH]c2c1 [Example 169, 4,6-dihydroxy-2-{[6-(methylsulfonyl)-1H-indol-3-yl]methylene}-1-benzofuran-3(2H)-one]
[1]; read-out: PI3Kα Avg. IC50
  IC50: 3590 nM
[2]
  IC50: 9100 nM

## COc1ccc2c(c(C=C3Oc4cc(O)cc(O)c4C3=O)cn2C)c1C [Example 236, 4,6-dihydroxy-2-[(5-methoxy-1,4-dimethyl-1H-indol-3-yl)methylene]-1-benzofuran-3(2H)-one]
[1]; read-out: PI3Kα Avg. IC50
  IC50: 1470 nM
[2]
  IC50: 1600 nM

## Cc1[nH]c2ccccc2c1/C=C1\Oc2cc(O)cc(O)c2C1=O [Example 47, (2Z)-4,6-dihydroxy-2-[(2-methyl-1H-indol-3-yl)methylene]-1-benzofuran-3(2H)-one]
[1]; PI3Kα Avg. IC50
  IC50: 3200 nM
[2]
  IC50: 500 nM

## Cn1c(-c2ccc(OCc3ccccc3)cc2)c(C=C2Oc3cc(O)cc(O)c3C2=O)c2ccccc21 [Example 260, 2-({2-[4-(benzyloxy)phenyl]-1-methyl-1H-indol-3-yl}methylene)-4,6-dihydroxy-1-benzofuran-3(2H)-one]
[1]; read-out: PI3Kα Avg. IC50
  IC50: 1670 nM
[2]
  IC50: 4500 nM

## N#CCCCn1cc(C=C2Oc3cc(O)cc(O)c3C2=O)c2c(C#N)cccc21 [Example 264, 1-(3-cyanopropyl)-3-[(4,6-dihydroxy-3-oxo-1-benzofuran-2(3H)-ylidene)methyl]-1H-indole-4-carbonitrile]
[1]; read-out: PI3Kα Avg. IC50
  IC50: 3930 nM
[2]
  IC50: 1700 nM

## O=C1C(=Cc2c[nH]c3cc(F)ccc23)Oc2cc(O)cc(O)c21 [Example 176, 2-[(6-fluoro-1H-indol-3-yl)methylene]-4,6-dihydroxy-1-benzofuran-3(2H)-one]
[1]; read-out: PI3Kα Avg. IC50
  IC50: 1550 nM
[2]
  IC50: 8700 nM

## COc1ccc(-c2[nH]c3ccccc3c2C=C2Oc3cc(O)cc(O)c3C2=O)cc1 [Example 208, 4,6-dihydroxy-2-{[2-(4-methoxyphenyl)-1H-indol-3-yl]methylene}-1-benzofuran-3(2H)-one]
[1]; read-out: PI3Kα Avg. IC50
  IC50: 954 nM
[2]
  IC50: 300 nM

## COc1ccc2c(c(C=C3Oc4cc(O)cc(O)c4C3=O)cn2CCCC#N)c1C [Example 239, 4-{3-[(4,6-dihydroxy-3-oxo-1-benzofuran-2(3H)-ylidene)methyl]-5-methoxy-4-methyl-1H-indol-1-yl}butanenitrile]
[1]; read-out: PI3Kα Avg. IC50
  IC50: 4940 nM
[2]
  IC50: 5900 nM

## Cc1[nH]c2c(Br)cccc2c1C=C1Oc2cc(O)cc(O)c2C1=O [Example 217, 2-[(7-bromo-2-methyl-1H-indol-3-yl)methylene]-4,6-dihydroxy-1-benzofuran-3(2H)-one]
[1]; read-out: PI3Kα Avg. IC50
  IC50: 1420 nM
[2]
  IC50: 2400 nM

## CCCn1c(-c2ccccc2)c(C=C2Oc3cc(O)cc(O)c3C2=O)c2ccccc21 [Example 214, 4,6-dihydroxy-2-[(2-phenyl-1-propyl-1H-indol-3-yl)methylene]-1-benzofuran-3(2H)-one]
[1]; read-out: PI3Kα Avg. IC50
  IC50: 4910 nM
[2]
  IC50: 2550 nM

## COc1cccc(-c2[nH]c3ccccc3c2C=C2Oc3cc(O)cc(O)c3C2=O)c1 [Example 209, 4,6-dihydroxy-2-{[2-(3-methoxyphenyl)-1H-indol-3-yl]methylene}-1-benzofuran-3(2H)-one]
[1]; read-out: PI3Kα Avg. IC50
  IC50: 1160 nM
[2]
  IC50: 490 nM

## N#Cc1ccc2c(C=C3Oc4cc(O)cc(O)c4C3=O)c[nH]c2c1 [Example 167, 3-[(4,6-dihydroxy-3-oxo-1-benzofuran-2(3H)-ylidene)methyl]-1H-indole-6-carbonitrile]
[1]; read-out: PI3Kα Avg. IC50
  IC50: 6760 nM
[2]
  IC50: 5300 nM

## COc1ccc(-c2cccc3c2c(/C=C2\Oc4cc(O)cc(O)c4C2=O)cn3C)cn1 [Example 369, (2Z)-4,6-Dihydroxy-2-{[4-(6-methoxypyridin-3-yl)-1-methyl-1H-indol-3-yl]methylene}-1-benzofuran-3(2H)-one]
[1]; read-out: PI3Kα Avg. IC50
  IC50: 1050 nM
[2]
  IC50: 84.5 nM

## O=C1C(=Cc2c(-c3ccccc3)[nH]c3ccccc23)Oc2cccc(O)c21 [Example 75, 4-hydroxy-2-[(2-phenyl-1H-indol-3-yl)methylene]-1-benzofuran-3(2H)-one]
[1]; read-out: PI3Kα Avg. IC50
  IC50: 2520 nM
[2]
  IC50: 5900 nM

## CC(=O)Nc1ccc2[nH]c(C)c(C=C3Oc4cc(O)cc(O)c4C3=O)c2c1 [Example 216, N-{3-[(4,6-dihydroxy-3-oxo-1-benzofuran-2(3H)-ylidene)methyl]-2-methyl-1H-indol-5-yl}acetamide]
[1]; read-out: PI3Kα Avg. IC50
  IC50: 9500 nM
[2]
  IC50: 11500 nM

## COCCn1cc(C=C2Oc3cc(O)cc(O)c3C2=O)c2c(C#N)cccc21 [Example 266, 3-[(4,6-dihydroxy-3-oxo-1-benzofuran-2(3H)-ylidene)methyl]-1-(2-methoxyethyl)-1H-indole-4-carbonitrile]
[1]; read-out: PI3Kα Avg. IC50
  IC50: 290 nM
[2]
  IC50: 810 nM

## COC(=O)c1cccc2c(C=C3Oc4cc(O)cc(O)c4C3=O)c[nH]c12 [Example 245, methyl 3-[(4,6-dihydroxy-3-oxo-1-benzofuran-2(3H)-ylidene)methyl]-1H-indole-7-carboxylate]
[1]; read-out: PI3Kα Avg. IC50
  IC50: 1490 nM
[2]
  IC50: > 20000 nM

## O=C1/C(=C/c2c(-c3ccc4ccccc4c3)[nH]c3ccccc23)Sc2ccc(Cl)cc21 [Example 285, (2Z)-5-chloro-2-{[2-(2-naphthyl)-1H-indol-3-yl]methylene}-1-benzothiophen-3(2H)-one]
[1]; read-out: PI3Kα Avg. IC50
  IC50: > 10000 nM
[2]
  IC50: > 20000 nM

## N#Cc1cccc2c1c(C=C1Oc3cc(O)cc(O)c3C1=O)cn2CCN1CCOCC1 [Example 262, 3-[(4,6-dihydroxy-3-oxo-1-benzofuran-2(3H)-ylidene)methyl]-1-(2-morpholin-4-ylethyl)-1H-indole-4-carbonitrile]
[1]; read-out: PI3Kα Avg. IC50
  IC50: > 10000 nM
[2]
  IC50: 420 nM
